pEC50: −log10 of the molar value. Structures can show the parent of a compound that is named as a salt.
Tests used:
[1] = biological target: human activated kallikrein enzyme (Homo sapiens, UniProt P03952); experiment: Inhibition of human activated plasma kallikrein, fluorogenic PFR-AMC substrate, 500 pM enzyme format; format: biochemical; details: 500 pM activated kallikrein; 300 μM PFR-AMC; 30 min preincubation; 10 min room temperature; pH 7.5; read-out: Primary Dose Response Assay: Average EC50
Procedure, shortened: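 Using fluorogenic PFR-AMC at 300 μM, cleavage by 500 pM human activated kallikrein ran 10 min at room temperature, read at 460 nm emission (380 nm excitation). Enzyme and compounds were first preincubated 30 min in 20 mM Tris pH 7.5, 150 mM NaCl, 1 mM EDTA, 0.1% PEG-400, 0.1% Triton X-100.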

[2] = biological target: T1, plasma kallikrein (Homo sapiens, UniProt P03952); experiment: Neat Human Plasma Assay (Fluorogenic Peptide), contact pathway-activated (FXIIa) plasma; format: biochemical; details: human citrated plasma 78% final; 10 nM human FXIIa; PFR-AMC substrate; 5 minutes; room temperature
T1 construct: PFR-AMC substrate
Procedure: To analyze inhibition of plasma kallikrein in an ex vivo setting, the potency of compounds was measure in contact pathway-activated plasma assays. In a fluorogenic peptide substrate assay, test compounds dissolved in DMSO were added to sodium citrate collected human or rat plasma in a 96-well microplate. Alternatively, citrated plasma was collected from rats administered the compounds orally or by IV. 10 nM of human FXIIa (Enzyme Research Laboratories) diluted in PKa buffer (20 mM Tris-HCl, pH 7.5, 150 mM NaCl, 1 mM EDTA, 0.1% PEG-8000, and 0.1% Triton X-100) was added to the plasma, followed by the […] of the profluorescent, synthetic plasma kallikrein substrate PFR-AMC (also diluted in PKa buffer). Final plasma concentration in the reaction was 78%. Fluorescence was immediately monitored by excitation/emission wavelengths of 360 nm/480 nm respectively over a period of 5 minutes in a microplate reader. The resulting linear increase in fluorescence emission (reflecting PKa proteolysis of PFR-AMC substrate) was fit to extract a proteolytic rate (fluorescent units over time), and this rate was subsequently plotted against compound inhibitor concentration. Resulting plots were fit to a standard 4-parameter IC50/IC90 equation to determine min/max values, IC50/90, and slope. All experimental steps were performed at room temperature.

T1 sequence (P03952 20-638): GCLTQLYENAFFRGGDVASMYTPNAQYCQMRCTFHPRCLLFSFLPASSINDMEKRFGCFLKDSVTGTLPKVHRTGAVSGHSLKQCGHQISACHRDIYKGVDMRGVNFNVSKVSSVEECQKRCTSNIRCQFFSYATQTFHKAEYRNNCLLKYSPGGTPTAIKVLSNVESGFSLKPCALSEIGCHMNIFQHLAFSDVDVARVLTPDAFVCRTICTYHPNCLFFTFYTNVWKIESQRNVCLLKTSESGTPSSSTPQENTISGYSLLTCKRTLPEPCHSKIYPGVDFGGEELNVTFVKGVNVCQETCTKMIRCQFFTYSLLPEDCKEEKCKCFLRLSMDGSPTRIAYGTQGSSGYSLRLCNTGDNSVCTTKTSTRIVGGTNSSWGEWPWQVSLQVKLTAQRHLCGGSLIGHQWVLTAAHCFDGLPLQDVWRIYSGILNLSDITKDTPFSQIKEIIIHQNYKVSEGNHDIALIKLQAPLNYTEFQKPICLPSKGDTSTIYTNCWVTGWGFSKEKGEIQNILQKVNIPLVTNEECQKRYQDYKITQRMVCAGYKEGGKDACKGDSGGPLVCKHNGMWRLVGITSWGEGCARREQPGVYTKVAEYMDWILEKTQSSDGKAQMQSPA
human activated kallikrein enzyme, sequence (P03952 391-638 limits assumed): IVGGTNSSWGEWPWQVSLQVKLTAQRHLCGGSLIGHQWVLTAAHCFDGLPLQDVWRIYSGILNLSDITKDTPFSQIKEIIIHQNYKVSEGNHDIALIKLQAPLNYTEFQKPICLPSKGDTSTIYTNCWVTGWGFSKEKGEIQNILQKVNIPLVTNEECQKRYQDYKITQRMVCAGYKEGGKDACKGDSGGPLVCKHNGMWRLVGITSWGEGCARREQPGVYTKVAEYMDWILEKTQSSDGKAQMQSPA
human activated kallikrein enzyme, sequence (P03952 20-390 partner limits assumed): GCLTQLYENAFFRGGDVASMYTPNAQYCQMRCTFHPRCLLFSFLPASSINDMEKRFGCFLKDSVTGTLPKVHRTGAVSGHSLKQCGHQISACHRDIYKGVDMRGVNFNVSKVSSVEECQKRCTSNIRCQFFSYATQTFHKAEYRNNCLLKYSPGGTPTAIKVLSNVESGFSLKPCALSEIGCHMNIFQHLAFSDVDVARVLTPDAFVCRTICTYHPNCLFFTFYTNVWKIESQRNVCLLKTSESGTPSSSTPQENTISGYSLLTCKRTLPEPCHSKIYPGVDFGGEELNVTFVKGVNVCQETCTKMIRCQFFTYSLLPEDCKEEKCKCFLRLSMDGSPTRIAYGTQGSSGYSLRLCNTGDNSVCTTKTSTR

Compound: Cc1cc2c(N)nccc2c(C)c1CNc1cc(OCc2cn3cc(C4CC4)cc(C#N)c3n2)ncn1 [Example 258, 2-(((6-(((1-amino-5,7-dimethylisoquinolin-6-yl)methyl)amino)pyrimidin-4-yl)oxy)methyl)-6-cyclopropylimidazo[1,2-a]pyridine-8-carbonitrile]
- pEC50 [1]: > 9.00
- IC90 [2]: > 5000 nM

Compound: Cc1cc2c(N)nccc2c(C)c1CNc1cc2c(ccn2Cc2cc3cc(C4CC4)cnc3s2)cn1 [Example 283, 6-(((1-((5-cyclopropylthieno[2,3-b]pyridin-2-yl)methyl)-1H-pyrrolo[3,2-c]pyridin-6-yl)amino)methyl)-5,7-dimethylisoquinolin-1-amine]
- pEC50 [1]: 8.00 to 9.00
- IC90 [2]: 1000 to 5000 nM

Compound: Cc1cc2c(N)nccc2c(C)c1CNc1cc2c(cn1)ncn2Cc1cn2cc(C3CC3)ccc2n1 [Example 499, 6-(((1-((6-cyclopropylimidazo[1,2-a]pyridin-2-yl)methyl)-1H-imidazo[4,5-c]pyridin-6-yl)amino)methyl)-5,7-dimethylisoquinolin-1-amine]
- pEC50 [1]: > 9.00
- IC90 [2]: ≤ 1000 nM

Compound: Cc1cc2c(N)nccc2c(C)c1CNc1cc(OCc2cc3cc(C4CC4)ccn3n2)ncn1 [Example 400, 6-(((6-((5-cyclopropylpyrazolo[1,5-a]pyridin-2-yl)methoxy)pyrimidin-4-yl)amino)methyl)-5,7-dimethylisoquinolin-1-amine]
- pEC50 [1]: 8.00 to 9.00
- IC90 [2]: > 5000 nM

Compound: Cc1cc2c(N)nccc2c(C)c1CNc1nccc2nn(Cc3cn4cc(C5CC5)cnc4n3)cc12 [Example 392, 6-(((2-((6-cyclopropylimidazo[1,2-a]pyrimidin-2-yl)methyl)-2H-pyrazolo[4,3-c]pyridin-4-yl)amino)methyl)-5,7-dimethylisoquinolin-1-amine]
- pEC50 [1]: > 9.00
- IC90 [2]: ≤ 1000 nM

Compound: Cc1cc2c(N)nccc2c(C)c1CNc1cc(NCc2cn3nc(C4CC4)ccc3n2)ncn1 [Example 242, N4-((1-amino-5,7-dimethylisoquinolin-6-yl)methyl)-N6-((6-cyclopropylimidazo[1,2-b]pyridazin-2-yl)methyl)pyrimidine-4,6-diamine]
- pEC50 [1]: > 9.00
- IC90 [2]: 1000 to 5000 nM

Compound: Cc1cc2c(N)nccc2c(C)c1CNc1nccc2nc(Cc3cn4cc(C5CC5)ccc4n3)[nH]c12 [Example 500, 6-(((2-((6-cyclopropylimidazo[1,2-a]pyridin-2-yl)methyl)-3H-imidazo[4,5-c]pyridin-4-yl)amino)methyl)-5,7-dimethylisoquinolin-1-amine]
- pEC50 [1]: > 9.00
- IC90 [2]: > 5000 nM

Compound: Cc1cc2c(N)nccc2c(C)c1CNc1cc(NCc2cc3cc(C4CC4)cnc3s2)ncn1 [Example 243, N4-((1-amino-5,7-dimethylisoquinolin-6-yl)methyl)-N6-((5-cyclopropylthieno[2,3-b]pyridin-2-yl)methyl)pyrimidine-4,6-diamine]
- pEC50 [1]: > 9.00
- IC90 [2]: ≤ 1000 nM

Compound: Cc1cc2c(N)nccc2c(C)c1CNc1cc(OCc2cn3cc(C4CC4)cnc3n2)ncn1 [Example 262, 6-(((6-((6-cyclopropylimidazo[1,2-a]pyrimidin-2-yl)methoxy)pyrimidin-4-yl)amino)methyl)-5,7-dimethylisoquinolin-1-amine]
- pEC50 [1]: > 9.00
- IC90 [2]: ≤ 1000 nM

Compound: Cc1cc2c(N)nccc2c(C)c1CNc1cc(OCc2nc3ccc(C4CC4)nn3n2)ncn1 [Example 391, 6-(((6-((6-cyclopropyl-[1,2,4]triazolo[1,5-b]pyridazin-2-yl)methoxy)pyrimidin-4-yl)amino)methyl)-5,7-dimethylisoquinolin-1-amine]
- pEC50 [1]: 7.00 to 8.00
- IC90 [2]: > 5000 nM

Compound: Cc1cc2c(N)nccc2c(C)c1CNc1cc(OCc2cn3nc(C4CC4)ccc3n2)ncn1 [Example 261, 6-(((6-((6-cyclopropylimidazo[1,2-b]pyridazin-2-yl)methoxy)pyrimidin-4-yl)amino)methyl)-5,7-dimethylisoquinolin-1-amine]
- pEC50 [1]: > 9.00
- IC90 [2]: 1000 to 5000 nM

Compound: Cc1cc2c(N)nccc2c(C)c1CNc1cc(OCc2cn3cc(C4CC4)cc(C4(F)COC4)c3n2)ncn1 [Example 272, 6-(((6-((6-cyclopropyl-8-(3-fluorooxetan-3-yl)imidazo[1,2-a]pyridin-2-yl)methoxy)pyrimidin-4-yl)amino)methyl)-5,7-dimethylisoquinolin-1-amine]
- pEC50 [1]: > 9.00
- IC90 [2]: 1000 to 5000 nM

Compound: N-((1-amino-5,7-dimethylisoquinolin-6-yl)methyl)-1-(4-((2-oxopyridin-1(2H)-y1)methyl)benzyl)-1H-1,2,3-triazole-4-carboxamide [Example 186]
- pEC50 [1]: > 9.00
- IC90 [2]: ≤ 1000 nM

Compound: Cc1cc2c(N)nccc2c(C)c1CNc1cc(OCc2ccc3ncc(C4CC4)cc3c2)cnn1 [Example 422, 6-(((5-((3-cyclopropylquinolin-6-yl)methoxy)pyridazin-3-yl)amino)methyl)-5,7-dimethylisoquinolin-1-amine]
- pEC50 [1]: > 9.00
- IC90 [2]: 1000 to 5000 nM

Compound: Cc1cc2c(N)nccc2c(C)c1CNc1cc(NCc2cn3cc(Cl)ccc3n2)ncn1 [Example 313, N^4-((1-amino-5,7-dimethylisoquinolin-6-yl)methyl)-N^6-((6-chloroimidazo[1,2-a]pyridin-2-yl)methyl)pyrimidine-4,6-diamine, formic acid salt]
- pEC50 [1]: > 9.00
- IC90 [2]: > 5000 nM

Compound: Cc1c(CNc2cc(OCc3cn4cc(C5CC5)ccc4n3)ncn2)c(C2(C)CC2)cc2c(N)nccc12 [Example 390, 6-(((6-((6-cyclopropylimidazo[1,2-a]pyridin-2-yl)methoxy)pyrimidin-4-yl)amino)methyl)-5-methyl-7-(1-methylcyclopropyl)isoquinolin-1-amine]
- pEC50 [1]: > 9.00
- IC90 [2]: > 5000 nM

Compound: Cc1cc2c(N)nccc2c(C)c1CNc1cc(NCc2cn3cc(C4CC4)ccc3n2)ncn1 [Example 331, N^4-((1-amino-5,7-dimethylisoquinolin-6-yl)methyl)-N^6-((6-cyclopropylimidazo[1,2-a]pyridin-2-yl)methyl)pyrimidine-4,6-diamine]
- pEC50 [1]: > 9.00
- IC90 [2]: 1000 to 5000 nM

Compound: Cc1cnc2ccc(Cn3cc(C(=O)NCc4c(C)cc5c(N)nccc5c4C)cn3)cc2c1 [Example 115, N-((1-amino-5,7-dimethylisoquinolin-6-yl)methyl)-1-((3-methylquinolin-6-yl)methyl)-1H-pyrazole-4-carboxamide]
- pEC50 [1]: > 9.00
- IC90 [2]: ≤ 1000 nM

Compound: Cc1cc2c(N)nccc2c(C)c1CNc1cc(Cc2cn3cc(C4CC4)ccc3n2)ncn1 [Example 403, 6-(((6-((6-cyclopropylimidazo[1,2-a]pyridin-2-yl)methyl)pyrimidin-4-yl)amino)methyl)-5,7-dimethylisoquinolin-1-amine]
- pEC50 [1]: > 9.00
- IC90 [2]: 1000 to 5000 nM

Compound: Cc1cc2c(N)nccc2c(C)c1CNc1cc(OCc2cn3cc(C4CC4)cc(N4CCCC4=O)c3n2)ncn1 [Example 259, 1-(2-(((6-(((1-amino-5,7-dimethylisoquinolin-6-yl)methyl)amino)pyrimidin-4-yl)oxy)methyl)-6-cyclopropylimidazo[1,2-a]pyridin-8-yl)pyrrolidin-2-one]
- pEC50 [1]: > 9.00
- IC90 [2]: ≤ 1000 nM

Compound: Cc1cc2c(N)nccc2c(C)c1CNc1cc(OCc2cc(C(N)=O)c3ncc(Cl)cc3c2)ncn1 [Example 401, 6-(((6-(((1-amino-5,7-dimethylisoquinolin-6-yl)methyl)amino)pyrimidin-4-yl)oxy)methyl)-3-chloroquinoline-8-carboxamide]
- pEC50 [1]: 8.00 to 9.00
- IC90 [2]: 1000 to 5000 nM

Compound: Cc1cc2c(N)nccc2c(C)c1CNc1cc(OC(C)c2ccc(Cn3cccn3)cc2)cnn1 (single isomer, unassigned) [Example 276, (R*)-6-(((5-(1-(4-((1H-pyrazol-1-yl)methyl)phenyl)ethoxy)pyridazin-3-yl)amino)methyl)-5,7-dimethylisoquinolin-1-amine]
- pEC50 [1]: > 9.00
- IC90 [2]: ≤ 1000 nM

Compound: Cc1ccc2nc(Cn3cc(C(=O)NCc4c(C)cc5c(NC(=O)OC(C)C)nccc5c4C)cn3)cn2c1 [Example 6, isopropyl (5,7-dimethyl-6-((1-((6-methylimidazo[1,2-a]pyridin-2-yl)methyl)-1H-pyrazole-4-carboxamido)methyl)isoquinolin-1-yl)carbamate]
- pEC50 [1]: 7.00 to 8.00

Compound: Cc1cc2c(N)nccc2c(C)c1CNC(=O)c1cnn(C(F)(F)c2ccc(Br)cc2)c1 [Example I-469, N-((1-amino-5,7-dimethylisoquinolin-6-yl)methyl)-1-((4-bromophenyl)difluoromethyl)-1H-pyrazole-4-carboxamide]
- pEC50 [1]: 6.00 to 7.00

Compound: Cc1ccc2nc(C(CO)n3cc(C(=O)NCc4c(C)cc5c(N)nccc5c4C)cn3)cn2c1 (stereo not drawn) [Example 130, N-((1-amino-5,7-dimethylisoquinolin-6-yl)methyl)-1-(2-hydroxy-1-(6-methylimidazo[1,2-a]pyridin-2-yl)ethyl)-1H-pyrazole-4-carboxamide]
- pEC50 [1]: > 9.00

Compound: Cc1cc2c(N)nccc2c(C)c1CNc1cc2c(ccn2Cc2ccc3ncccc3c2)cn1 [Example 528, 5,7-dimethyl-6-(((1-(quinolin-6-ylmethyl)-1H-pyrrolo[3,2-c]pyridin-6-yl)amino)methyl)isoquinolin-1-amine]
- pEC50 [1]: < 6.00
